Read-outs that look alike come from different tables or passages of the source.
Assays:
washed human platelets [1] = experiment: Collagen-induced platelet aggregation, light transmission aggregometry (Born method); type: cell-based; conditions: for IC50: Homo sapiens, collagen-induced platelet aggregation, compounds without IC50 determination estimated from percent inhibition at 20 µM, read-out: IC50 (SAR table); for IC50 / activity at 20 µM: Platelet; for activity at 20 µM: compound 20 µM, washed human platelets, means ± SDs of three experiments, 100% = agonist alone
Method: Light transmission aggregometry, i.e., the Born method, was used to determine in vitro antiplatelet aggregation activity using collagen as the agonist for platelet aggregation. Collagen was selected as the agonist, since it is the most thrombogenic component of the subendothelial layer. Collagen also serves as a substrate for platelet adhesion and as an inducer of platelet activation.
All experiments using human blood from healthy volunteers were performed according to the protocols approved by the Institutional Review Board at Cincinnati Children’s Hospital Medical Center, Cincinnati, Ohio. Each volunteer was required to sign an informed consent form approved by the IRB. Procedures for drawing human blood, isolating platelet-rich plasma (PRP), and preparing washed platelet suspensions were the same as those previously reported. […] PRP was obtained by means of the centrifugation of blood at 1400 rpm for 15 min at room temperature. PRP was centrifuged at 4000 rpm for 10 min at room temperature, and the platelet pellet was resuspended in HEPES Tyrode’s solution (pH 7.4) without calcium. Platelets were counted using Hemavet 950FS (Drew Scientific, Oxford, CT, USA), and the count was adjusted to 2.5 × 10^8/mL for aggregation studies.
The in vitro antiplatelet activity of the compounds was assayed on washed human platelets using light transmission aggregometry. Platelet aggregation was performed using a 4-channel Lumi-aggregometer (Chronolog, PA, USA) at 37 °C and stirring speed of 900 rpm. A volume of 250 µL of washed human platelets (2.5 × 10^8/mL) was pre-warmed to 37 °C along with the compounds or DMSO (0.1%) for 2 min before the addition of agonists such as collagen, AA, U46619 (a stable synthetic analog of thromboxane A2), ADP, and thrombin. For ATP secretion, platelets were pre-incubated with a luciferin/luciferase kit (Chrono-lume®) for 30 s at 37 °C before the addition of the agonist. The reactions were allowed to proceed for at least 4 min, and the results of platelet aggregation and ATP secretion were determined using Aggrolink software. Platelet aggregation was expressed as the maximum change in the light transmission, where the 100% value corresponded to treatment with the agonist alone. Compounds were evaluated in triplicate at nine compound concentrations ranging from 50 µM to 1 µM.

RhoA-LARG interaction = molecular target: T1, RhoA-LARG interaction (Homo sapiens, UniProt P61586); experiment: In vitro complex-formation assay of RhoA with LARG DH-PH domain; type: binding; conditions: 20 µM; pull-down assay conditions, 4 °C, 1 h
T1 construct: 100 ng of purified full-length RhoA
Method: (A) A complex-formation assay tested the inhibitory effects of 20 µM UC-177618 and UC-177619 on RhoA interaction with the LARG DH-PH domain. […] After incubating the compound-RhoA-LARG mixture at 4 °C for 1 h, the beads associated with RhoA were detected with anti-RhoA Western blotting. (B,C) Top view of the predicted structural contacts of UC-177618 and UC-177619 in the binding pocket around the Trp58 residue of RhoA.
(A) A complex-formation assay tested the inhibitory effects of R-G04 and S-G04 on RhoA interaction with the LARG DH-PH domain. MBP-(His)6-tagged LARG (100 ng) was immobilized on Amylose beads. Binding buffer containing full-length RhoA (100 ng) was pre-incubated with different concentrations of R-G04 (25 µM or 50 µM), and S-G04 (5 µM or 10 µM) was added to the beads. After incubating the compound-RhoA-LARG mixture at 4 °C for 1 h, the beads associated with RhoA were detected with anti-RhoA Western blotting. (B) Top view of the predicted structural contacts of R-G04 and S-G04 in the binding pocket around the Trp58 residue of RhoA.
In total, 100 ng of purified MBP (Maltose-binding protein)-(His)6-tagged LARG DH-PH was immobilized on 20 µL of suspended amylose beads (No. E8021S; New England Biolabs Inc., Ipswich, MA, USA) by incubating them in an orbital shaker at 4 °C for 30 min in binding buffer (20 mM Tris·HCl (pH 7.6), 100 mM NaCl, 0.01% Triton X-100, 5mM EDTA, and 5 mM MgCl2). The compounds were added to the binding buffer containing 100 ng of purified full-length RhoA and pre-incubated at 4 °C for 30 min under constant agitation. The Amylose beads bound to LARG were washed thrice with binding buffer to get rid of unbound LARG, and the pre-incubated compound-RhoA mixture was added to the beads. This LARG-compound-RhoA mixture was incubated in the orbital shaker at 4 °C for 1 h. The beads were washed three times, and the amount of RhoA protein co-precipitated with the MBP-fusion-bound beads was detected with anti-RhoA Western blotting.

washed human platelets [2] = experiment: Wash-out reversibility of inhibition of collagen-induced platelet aggregation; type: cell-based
Method: The reversible inhibition of Rhosin in collagen-induced platelet aggregation was assessed with similar wash-out experiments, and this reversible nature of Rhosin makes it a valuable antiplatelet drug candidate (Supporting Information Figure S4A,B). After confirming the structures of the above six active analogs, similar wash-out experiments were performed to compare the reversible function of the active analogs with Rhosin reversibility.

RhoA = experiment: RhoA-GTP formation, GST-Rhotekin effector pull-down assay in collagen-stimulated platelets; type: cell-based, human; conditions: 20 µM, 2 min pre-incubation; collagen 1 µg/mL for 4 min
Method: Next, the ability of the six compounds to suppress RhoA activity in platelets was assessed by subjecting them to a GST (Glutathione-S-transferase)-Rhotekin effector pull-down assay. The compounds were incubated with washed human platelets for 2 min before being stimulated with 1 µg/mL collagen. The analogs inhibited the activation of RhoA at the 20 µM concentration (Figure 2A,B). […] After confirming that these analogs could prevent RhoA activation and the phosphorylation of the MLC, their ability to disrupt complex-formation between RhoA and LARG was tested. […] These findings indicate that the active analogs inhibit RhoA activation by disrupting the binding between RhoA and its GEF.
(A,B) Washed human platelets were incubated with collagen (1 µg/mL) for 4 min, and the levels of RhoA-GTP formation were quantified with a GST-Rhotekin effector pull-down assay. The platelets were pre-incubated with 20 µM UC-177618, UC-177619, UC-177628, UC-177629, […], or […] for 2 min before being stimulated with collagen. The addition of ice-cold lysis buffer terminated the reaction. […] Relative amounts of the GTP-bound form of RhoA were quantified with densitometry measurements of total RhoA (T-RhoA) and normalized to untreated platelets. (C,D) The addition of 20 µM of active Rhosin-related compounds to washed human platelets 2 min before stimulation with collagen blocked the phosphorylation of the myosin light chain (p-MLC). The reactions were terminated after 4 min by adding 4x Laemmli sample buffer. The samples were processed for Western blotting and probed for MLC and p-MLC, and phosphorylation was quantified by measuring the densitometry of total MLC (T-MLC). The differences between DMSO- and Rhosin-related compounds were analyzed with t-test, and the results are shown as means ± SDs of three independent experiments. (* p < 0.05, ** p < 0.01, *** p < 0.001, and **** p < 0.0001).
The relative levels of RhoA-GTP in washed human platelets were quantified with effector domains GST-Rhotekin pull-down assays as previously reported. A volume of 250 µL of washed human platelets (2.5 × 10^8/mL) was pre-warmed to 37 °C along with the compounds or DMSO (0.1%) for 2 min before being stimulated with collagen (1 µg/mL). The reactions were terminated 4 min after collagen stimulation by adding ice-cold lysis buffer (20 mM Tris·HCl (pH 7.6), 100 mM NaCl, 1% Triton X-100, 0.2% Sodium Deoxycholate, 10 mM MgCl2, 1 mM dithiothreitol, 1x protease inhibitor cocktail, and 1x phosphatase inhibitor cocktail). The supernatants were collected and subjected to the GST-Rhotekin pull-down assay. The total cell lysates were also blotted in parallel. GTP-bound RhoA was quantitatively detected with Western blotting using an anti-RhoA antibody. The relative amounts of RhoA were quantified with densitometry measurements and normalized to the untreated platelets.

[3] = read-out: % Platelet Aggregation, Collagen (1 µg/mL)
[4] = read-out: % Platelet Aggregation, Collagen (5 µg/mL)

T1 sequence (P61586 whole entry, the tested form may be a part): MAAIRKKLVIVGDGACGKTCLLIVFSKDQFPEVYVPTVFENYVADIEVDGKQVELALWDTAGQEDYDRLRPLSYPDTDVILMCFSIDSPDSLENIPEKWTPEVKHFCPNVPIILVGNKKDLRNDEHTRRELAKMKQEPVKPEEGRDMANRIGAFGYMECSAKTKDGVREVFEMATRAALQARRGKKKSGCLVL

Row | Structure (SMILES) | IC50 (washed human platelets [1]) [nM] | activity at 20 µM (washed human platelets [1]; [3]) [%] | activity at 20 µM (washed human platelets [1]; [4]) [%] | LARG binding to RhoA (RhoA-LARG interaction) | reversibility of inhibitory effect after wash-out (washed human platelets [2]) | RhoA-GTP formation (RhoA) | activity in collagen-induced platelet aggregation (SAR statement) (washed human platelets [1]; relative to the quinoline analogs)
1 | O=C(NNc1ccnc2c(C(F)(F)F)cccc12)c1ccc(Cl)c(Cl)c1 [UC-177618] | 1500 | 5 ± 1.7 | 10.2 ± 4.1 | inhibit RhoA-LARG interaction | entirely reversible | inhibited RhoA-GTP formation | 
2 | O=C(NNc1ccnc2cc(Cl)ccc12)c1ccc(Cl)c(Cl)c1 [UC-177619] | 820 | 9.3 ± 3.5 | 12 ± 2.1 | inhibit RhoA-LARG interaction | entirely reversible | inhibited RhoA-GTP formation | slightly better potency
